“And” between values parts separate entries of the source, which are not always exact repeats. Identical values can stand only once.
Key:
[1] = xn = mol fraction of the nth substance listed; conditions: 101 kPa, Liquid
[2] = 101 kPa, Liquid
[3] = refractive index (Na D-line) (dimensionless); conditions: 298.15 K; 101.33 kPa; Liquid; Standard Abbe refractometry

Cc1cc(C)cc(C)c1 [1,3,5-trimethylbenzene] + CCCCCCCC
[1]
Conditions | mass density [kg/m3]
298.15 K, x2 = 0 | 861.13
298.15 K, x2 = 0.08503 | 845.14
298.15 K, x2 = 0.1479 | 833.6
298.15 K, x2 = 0.2132 | 821.88
298.15 K, x2 = 0.2717 | 811.56
298.15 K, x2 = 0.3177 | 803.61
298.15 K, x2 = 0.3864 | 791.95
298.15 K, x2 = 0.463 | 779.23
298.15 K, x2 = 0.5407 | 766.69
298.15 K, x2 = 0.6037 | 756.73
298.15 K, x2 = 0.6725 | 746.08
298.15 K, x2 = 0.723 | 738.44
298.15 K, x2 = 0.7969 | 727.45
298.15 K, x2 = 0.8623 | 717.95
298.15 K, x2 = 0.9422 | 706.63
308.15 K, x2 = 0 | 852.89
308.15 K, x2 = 0.08503 | 836.88
308.15 K, x2 = 0.1386 | 827.02
308.15 K, x2 = 0.2132 | 813.6
308.15 K, x2 = 0.2717 | 803.29
308.15 K, x2 = 0.3177 | 795.34
308.15 K, x2 = 0.3864 | 783.69
308.15 K, x2 = 0.463 | 770.99
308.15 K, x2 = 0.5407 | 758.45
308.15 K, x2 = 0.6037 | 748.49
308.15 K, x2 = 0.6725 | 737.87
308.15 K, x2 = 0.723 | 730.2
308.15 K, x2 = 0.7969 | 719.24
308.15 K, x2 = 0.8623 | 709.74
308.15 K, x2 = 0.9422 | 698.43
318.15 K, x2 = 0 | 844.78
318.15 K, x2 = 0.06984 | 831.58
318.15 K, x2 = 0.1363 | 819.34
318.15 K, x2 = 0.2001 | 807.84
318.15 K, x2 = 0.2695 | 795.59
318.15 K, x2 = 0.3464 | 782.35
318.15 K, x2 = 0.398 | 773.67
318.15 K, x2 = 0.4464 | 765.65
318.15 K, x2 = 0.536 | 751.14
318.15 K, x2 = 0.5995 | 741.12
318.15 K, x2 = 0.6643 | 731.1
318.15 K, x2 = 0.7301 | 721.16
318.15 K, x2 = 0.7839 | 713.18
318.15 K, x2 = 0.8537 | 703.03
318.15 K, x2 = 0.9507 | 689.3
328.15 K, x2 = 0 | 836.65
328.15 K, x2 = 0.06984 | 823.48
328.15 K, x2 = 0.1363 | 811.25
328.15 K, x2 = 0.2001 | 799.75
328.15 K, x2 = 0.2677 | 787.84
328.15 K, x2 = 0.3464 | 774.3
328.15 K, x2 = 0.398 | 765.62
328.15 K, x2 = 0.4622 | 755.02
328.15 K, x2 = 0.5368 | 743
328.15 K, x2 = 0.6022 | 732.7
328.15 K, x2 = 0.6552 | 724.51
328.15 K, x2 = 0.7389 | 711.86
328.15 K, x2 = 0.7839 | 705.21
328.15 K, x2 = 0.8537 | 695.07
328.15 K, x2 = 0.9507 | 681.35

c1ccccc1 [benzene]
[2]
Conditions | mass density [kg/m3]
298.15 K | 873.62
308.15 K | 863.01
318.15 K | 852.16
328.15 K | 841.49

Conditions | refractive index
[3] | 1.4979

CCCCCCCC [octane]
[2]
Conditions | mass density
298.15 K | 698.62 kg/m3 [middle of 4 runs]
308.15 K | 690.44 kg/m3 and 690.43 kg/m3 and 690.45 kg/m3
318.15 K | 682.47 kg/m3 and 682.49 kg/m3
328.15 K | 674.55 kg/m3 and 674.56 kg/m3 and 674.54 kg/m3

Conditions | refractive index
[3] | 1.395

Cc1cccc(C)c1 [1,3-dimethylbenzene]
[2]
Conditions | mass density [kg/m3]
298.15 K | 859.85
308.15 K | 851.2
318.15 K | 842.66
328.15 K | 834.13

Conditions | refractive index
[3] | 1.4945

Reference: the NIST ThermoML archive (doi:10.1016/j.jct.2007.10.010)
